# Measurements: patent US5559092A, “Cosmetic composition” (Chesebrough-Pond's USA Co. Division of Conopco, Inc., priority 1992, dated 1996)
# Entries after “also recorded” stand apart in the source; their conditions may differ.
# Tests used:
# [1] = tested on: isolated human hair follicles; assay: in vitro hair follicle growth test (elongation of isolated human hair follicles in culture medium); assay type: cell-based
# Description: The effect of compounds on hair growth was assessed using an in vitro test which measures the elongation of isolated human hair follicles in a culture medium.
# This test includes the important step of isolating hair follicles having an undamaged hair bulb from human skin, for example, facelift skin, by microdissection.
# The critical step of separating the hair follicle with intact undamaged hair bulb from the subcutaneous fatty tissue in which it is situated accordingly involves severing the hair shaft of the follicle at a point below the epidermis of skin surface, so as to leave the hair bulb intact and undamaged while still bearing a portion of the hair shaft.
# Preferably, the hair shaft of the follicle is severed at the dermal-subcutaneous fat interface.
# Any suitable cutting instrument can be employed to sever the hair shaft in this manner, but a keratotome or a scalpel are preferred.
# The hair bulb with a hair Shaft stump attached is then isolated from the skin by mechanically separating the hair from loosely adhering subcutaneous fat which normally surrounds the hair bulb. This is achieved after the dermis or upper layer of the skin has been separated and removed, to avoid damaging the hair bulb as it is pulled away.
# The hair bulb together with hair shaft stump attached, is then transferred in an otherwise undamaged and fully functioning, viable state to a nutrient medium.
# The hair follicles isolated by the technique described herein are transferred to a suitable culture medium for subsequent testing of substances that can then influence their future development.
# The procedure now to be described represents a preferred method of culture and testing of hair growth.
# In accordance with the preferred method of culture, isolated hair follicles, […], are maintained in 1 ml of Williams E medium, either with or without a test hair growth substance, supplemented with […] (Penicillin and Streptomyein), Insulin (10 ng/ml) and Hydrocortisone (10 ng/ml). The medium was incubated at 37° C. in an atmosphere of 5% CO2 +95% air in individual wells of a 24 multiwell dish (Corning), which permits detailed measurements to be made of the length of individual hair follicles. The medium was refreshed once during the experiment after 4 days.
# Williams E medium is available from FLOW Laboratory under Catalogue No. 12-502. […]
# Daily growth rate and cumulative growth for each follicle were calculated by measuring the change in length of the follicles each day and from this the average of all the follicles was calculated.
# The response of an isolated hair follicle to a test substance, can accordingly be assessed by measuring the increase in length, if any, in the presence of a test substance against a control. […]
# [2] = storage stability in aqueous hair treatment composition (shampoo, conditioner or tonic); assay type: physicochemical; settings: ambient temperature, 3 months
# Text: From these observations, it was realised that the αNH2 group of glutamine should be protected in order to stablise the molecule.
# [3] = 2 mM in Williams E medium & glucose
compound,measurement,setting,value
"NC(=O)CC[C@H](N)C(=O)O [Glutamine, glutamine]",Amount of hair grown in one week,[1]; [3],2.02 mm
same,Average daily rate of growth of hair over one week,[1]; [3],0.277 mm/d
same,potency as hair growth promoter after storage,[1]; after 3 months storage at 20° C.,diminished significantly
same,effect on linear hair growth (in words),"[1]; isolated human follicles in vitro, compared with the control",potent promoter of linear hair growth; also recorded: significant increase in hair growth
same,stability during storage in aqueous hair treatment composition,[2],a significant amount of the glutamine had been converted to pyroglutamic acid and ammonia
